Experiment in all cases: inhibition of tumour cell growth, NCI panel, 48 h
The subject of assay [1] is A549.
Assay [2] concerns ACHN.
Assay [3] relates to COLO 205.
Assay [4] has as its system HCC 2998.
Assay [5] has as its system HCT-116.
Assay [6] has as its system HL-60.
In assay [7] the test system is HOP-62.
For assay [8], the system named is K562.
Assay [9] has as its system MOLT-4.
Assay [10] has as its system Malme-3M.
Assay [11] relates to OVCAR-4.
The subject of assay [12] is OVCAR-8.
Assay [13] relates to SN12C.
Assay [14] deals with SW-620.
Assay [15] concerns U-251.
The test system of assay [16] is UACC-62.
The test system of assay [17] is HT-29.
The subject of assay [18] is OVCAR-3.
Assay [19] deals with SF-295.
Assay [20] concerns RXF 393.

The results in this text go back to ChEMBL document CHEMBL1201862, “PubChem BioAssay data set” (2004).

The structures appear in SMILES notation.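 96-well plates; 48 h exposure; 5 concentrations. Endpoints by linear interpolation between flanking doses. Not reached: highest tested concentration assigned. At the GI50, growth is halved.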 Calls of active or inactive are those of the source. Cut-off read from the data, not from the text of the source: active = GI50 up to about 1.1 µM and inactive = higher.

For `COc1ccc(C(CC(=O)c2cccs2)C(=O)c2ccc3c(c2)OCO3)cc1` (stereo not drawn), the GI50 in assay [1], in assay [2], in [3], in assay [4], in assay [5] and in [6] was > 100 µM (inactive) in each case. In addition, the GI50 in [7] was > 100 µM (inactive); in assay [8], > 100 µM (inactive); in assay [9] it was > 100 µM (inactive); in assay [10], 97.7 µM (inactive); in [11] it was > 100 µM (inactive); in [12], > 100 µM (inactive). The GI50 in assay [13], in assay [14], in [15] and in assay [16] was > 100 µM (inactive) throughout.
Regarding `N#C/C(=C\c1ccc(C(O)P(=O)(O)O)cc1)C(N)=O` (stereo not drawn), the GI50 is > 100 µM (inactive) in [1]; 14.5 µM (inactive) in assay [2]; > 100 µM (inactive) in assay [3]; 3.66 µM (inactive) in [4]; 76.9 µM (inactive) in assay [5]; 6.01 µM (inactive) in assay [6]. Besides, the GI50 was 73.3 µM (inactive) in assay [7]; > 100 µM (inactive) in assay [17]; > 100 µM (inactive) in assay [8]; 24.9 µM (inactive) in assay [9]; > 100 µM (inactive) in assay [10]; > 100 µM (inactive) in [18]. Besides, the GI50 in assay [11] is > 100 µM (inactive); in [12] it was > 100 µM (inactive); in [19], > 100 µM (inactive); in [13] it was > 100 µM (inactive); in [14] it was > 100 µM (inactive); in [15], 60.5 µM (inactive). For the same molecule, the GI50 in assay [16] was 7.83 µM (inactive).
On to `CCCCCNC(=O)c1c(O)[nH]c(=S)[nH]c1=O`, for which the GI50 was 66.5 µM (inactive) in [1]; > 100 µM (inactive) in [2]; > 100 µM (inactive) in assay [3]; > 100 µM (inactive) in [5]; > 100 µM (inactive) in assay [6]; > 100 µM (inactive) in assay [7]. Besides, the GI50 in assay [17] was > 100 µM (inactive); in assay [8], > 100 µM (inactive); in [9], > 100 µM (inactive); in assay [10], > 100 µM (inactive); in assay [18] it was > 100 µM (inactive); in assay [11], 41.6 µM (inactive). In addition, the GI50 in assay [12] is 94.4 µM (inactive); in assay [19] it was 78.2 µM (inactive); in assay [13], > 100 µM (inactive); in assay [14], > 100 µM (inactive); in assay [15], 66.8 µM (inactive); in assay [16], > 100 µM (inactive).
On to `O=C1c2ccccc2C(=O)c2c(OCCOCCO)cccc21`, for which the GI50 in assay [1] is > 100 µM (inactive); in assay [2], 43.9 µM (inactive); in assay [3], > 100 µM (inactive); in [5], 45.6 µM (inactive); in assay [6], > 100 µM (inactive); in assay [7] it was > 100 µM (inactive). Also, the GI50 was 63.4 µM (inactive) in assay [17]; > 100 µM (inactive) in assay [8]; 58.3 µM (inactive) in assay [9]; 74.3 µM (inactive) in assay [10]; 28.4 µM (inactive) in assay [18]; 72.9 µM (inactive) in [11]. The GI50 in [12] is 70.1 µM (inactive); in [20], 48.6 µM (inactive); in [19], 96.6 µM (inactive); in [13], 0.714 µM (active); in assay [14] it was 57.5 µM (inactive); in assay [15] it was > 100 µM (inactive). Also, the GI50 in assay [16] is 0.585 µM (active).
Consider `Cn1c2ncccc2n2c(=O)cc(O)cc12`, for which the GI50 in assay [1] was > 100 µM (inactive); in assay [2], > 100 µM (inactive); in assay [3], 53 µM (inactive); in assay [4], 39.4 µM (inactive); in assay [5], > 100 µM (inactive); in [7], 39.4 µM (inactive). Also, the GI50 was 46.6 µM (inactive) in assay [17]; > 100 µM (inactive) in [8]; 20.7 µM (inactive) in [9]; 33.6 µM (inactive) in assay [10]; 40.8 µM (inactive) in [18]; 40 µM (inactive) in assay [11]. The GI50 in assay [12] was > 100 µM (inactive); in [20] it was 21.1 µM (inactive); in assay [19], 97.9 µM (inactive); in assay [14], 82.4 µM (inactive); in assay [15], > 100 µM (inactive); in assay [16], 77.3 µM (inactive).
`O=c1cc(O)ccn1C1C=C(CO)C(O)C1O` (stereo not drawn): the GI50 is > 625 µM (inactive) in assay [1]; > 625 µM (inactive) in assay [4]; 263 µM (inactive) in assay [5]; 183 µM (inactive) in assay [6]; > 625 µM (inactive) in assay [7]; > 625 µM (inactive) in [17]. Moreover, the GI50 in assay [10], in [18], in assay [11], in [12], in assay [20] and in [19] was > 625 µM (inactive) in each case. Further, the GI50 in assay [13] is 586 µM (inactive); in assay [14] it was > 625 µM (inactive); in [15], > 625 µM (inactive); in assay [16], > 625 µM (inactive).
Consider `CCOP(=O)(OCC)C(Cc1ccc(OC)c(OC)c1)N=C(c1ccccc1)c1ccccc1` (stereo not drawn), for which the GI50 is 26.5 µM (inactive) in [1]; 41.6 µM (inactive) in assay [2]; 18.9 µM (inactive) in assay [3]; 24.6 µM (inactive) in assay [4]; 27.1 µM (inactive) in assay [5]; 31.3 µM (inactive) in assay [6]. For the same molecule, the GI50 in assay [17] was 36.8 µM (inactive); in [8], < 0.01 µM (active); in assay [18], 34.4 µM (inactive); in [11], 81.7 µM (inactive); in assay [12] it was 42.9 µM (inactive); in [20], 61.4 µM (inactive). Further, the GI50 was 26.2 µM (inactive) in assay [19]; 42 µM (inactive) in assay [13]; 47.6 µM (inactive) in [14]; 46.1 µM (inactive) in assay [15]; 68.7 µM (inactive) in assay [16].
Take `O=C(CSc1nnc(-c2ccc(/N=C\c3ccc(Cl)cc3)cc2)o1)Nc1ccccc1`: the GI50 in assay [1] is > 100 µM (inactive); in assay [2], > 100 µM (inactive); in [3], > 100 µM (inactive); in assay [5], 16.6 µM (inactive); in [6], 34.4 µM (inactive); in assay [7], > 100 µM (inactive). For the same molecule, the GI50 was 44.2 µM (inactive) in [17]; 30.1 µM (inactive) in [8]; 39.6 µM (inactive) in assay [9]; > 100 µM (inactive) in [10]; > 100 µM (inactive) in assay [11]; > 100 µM (inactive) in assay [12]. The GI50 in assay [20] was 33 µM (inactive); in assay [19], 94.4 µM (inactive); in assay [13], > 100 µM (inactive); in assay [14], 44.9 µM (inactive); in assay [15], 52 µM (inactive); in [16], 73.8 µM (inactive).
Regarding `C[C@H]1COC2(c3ccccc3)CCC(=O)N12` (stereo partly drawn), the GI50 in [1], in [2], in [3], in assay [5], in assay [7] and in assay [17] was > 100 µM (inactive) each time. Moreover, the GI50 in assay [8], in [10], in assay [18], in assay [11], in assay [12] and in assay [20] was > 100 µM (inactive) each time. The GI50 in [19], in assay [13], in [14], in assay [15] and in assay [16] was > 100 µM (inactive) throughout.
For the molecule `Nc1nccc2c1ncn2[C@H]1C[C@H](O)[C@@H](CO)O1`, the GI50 in assay [3], in assay [4], in assay [5], in assay [7], in assay [17] and in assay [8] was > 100 µM (inactive) throughout. The GI50 in assay [9], in assay [10], in assay [18], in assay [11], in [12] and in assay [20] was > 100 µM (inactive) in each case. Further, the GI50 in assay [19], in [13], in [14], in [15] and in assay [16] was > 100 µM (inactive) each time.
As to `CCOC(=O)CCC(NC(=O)c1ccc(Nc2nc3cc(C(F)(F)F)ccc3nc2C(=O)OCC)cc1)C(=O)OCC` (stereo not drawn), the GI50 in [1] is 8.63 µM (inactive); in [2] it was 13.8 µM (inactive); in assay [3], 4.14 µM (inactive); in assay [4], 30.8 µM (inactive); in assay [5] it was 6.75 µM (inactive); in [6] it was > 100 µM (inactive). In addition, the GI50 in assay [7] was 14 µM (inactive); in assay [17], 4.18 µM (inactive); in assay [8] it was 95.3 µM (inactive); in assay [9] it was > 100 µM (inactive); in assay [18], 13.8 µM (inactive); in assay [11], 3.54 µM (inactive). The GI50 in assay [12] is 5.45 µM (inactive); in [19] it was 5.74 µM (inactive); in assay [13], 10.7 µM (inactive); in [14], 18.6 µM (inactive); in [15], 11.3 µM (inactive); in [16] it was 9.16 µM (inactive).
